Literature values in patent publication US20170340580A1, “BIOADHESIVE PATCH” (priority 2008, published 2017).

Conditions: 8 mg ml^−1; temperatures up to 37° C.

ALA stability in 0.1 M borate buffer pH 5: up to 6 hours
SMILES: NCC(=O)CCC(=O)O [ALA, 5-aminolevulinic acid]
